Biological target: T1, ERR1 (also known as ERR-α or ERR-1) (Homo sapiens, UniProt P11474)
T1 sequence (P11474 193-421 limits assumed): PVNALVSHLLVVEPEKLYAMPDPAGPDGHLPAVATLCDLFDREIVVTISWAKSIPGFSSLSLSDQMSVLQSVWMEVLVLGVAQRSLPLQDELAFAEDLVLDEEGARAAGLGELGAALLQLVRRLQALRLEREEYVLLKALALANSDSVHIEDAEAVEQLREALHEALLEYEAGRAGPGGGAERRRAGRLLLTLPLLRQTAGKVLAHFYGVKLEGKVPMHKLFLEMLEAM
Experiment: TR-FRET assay (disruption of co-activator peptide binding to ERR1 LBD)
Format: biochemical
Conditions: 6 nM 6His-ERR1LBD, 6 nM GST-SRC-2 peptide; average of 3 independent experiments
Outline: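 His-tagged ERR1 ligand-binding domain and GST-labelled SRC-2 peptide, each 6 nM, equilibrated at 25° C for 4-18 h in Tris pH 8/Hepes/KCl/DTT/delipidated BSA buffer. Compound-induced loss of co-activator binding read as Eu cryptate→XL665 energy transfer; values from hyperbolic curve fits averaged over 3 independent runs.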

| Structure (SMILES) | EC50 |
| --- | --- |
| CCN1CCC(N2C(=O)S/C(=C\c3ccc4c(c3)c(OC)nn4Cc3ccc(Cl)cc3C(F)(F)F)C2=O)CC1 [Compound 30, (5Z)-5-({1-[4-Chloro-2-(trifluoromethyl)benzyl]-3-methoxy-1H-indazol-5-yl}methylidene)-3-(1-ethylpiperidin-4-yl)-1,3-thiazolidine-2,4-dione] | 96 nM |
| CN1CCC[C@H]1CN1C(=O)S/C(=C\c2ccc3c(c2)c(Cl)nn3Cc2ccc(Cl)cc2C(F)(F)F)C1=O [Compound 301, (5Z)-5-({3-Chloro-1-[4-chloro-2-(trifluoromethyl)benzyl]-1H-indazol-5-yl}methylidene)-3-{[(2S)-1-methylpyrrolidin-2-yl]methyl}-1,3-thiazolidine-2,4-dione] | 15 nM |
| CN(C)CCN1C(=O)S/C(=C\c2ccc3c(ccn3Cc3ccc(C#N)cc3C(F)(F)F)c2)C1=O [Compound 246, 4-({5-[(Z)-{3-[2-(Dimethylamino)ethyl]-2,4-dioxo-1,3-thiazolidin-5-ylidene}methyl]-1H-indol-1-yl}methyl)-3-(trifluoromethyl)benzonitrile] | 500 nM |
| O=C1S/C(=C\c2ccc3c(cnn3Cc3ccc(Cl)cc3C(F)(F)F)c2)C(=O)N1C1(C(=O)O)CCOCC1 [Compound 227, 4-[(5Z)-5-({1-[4-Chloro-2-(trifluoromethyl)benzyl]-1H-indazol-5-yl}methylidene)-2,4-dioxo-1,3-thiazolidin-3-yl]etrahydro-2H-pyran-4-carboxylic acid] | 53 nM |
| O=C1S/C(=C\c2ccc3c(cnn3Cc3ccc(Cl)cc3C(F)(F)F)c2)C(=O)N1C1CCNCC1(F)F (centres unmarked) [Compound 345, (5Z)-5-({1-[4-Chloro-2-(trifluoromethyl)benzyl]-1H-indazol-5-yl}methylidene)-3-(3,3-difluoropiperidin-4-yl)-1,3-thiazolidine-2,4-dione] | 18 nM |
| O=C(O)CN1C(=O)S/C(=C\c2ccc3c(c2)c(F)nn3Cc2ccc(Cl)cc2C(F)(F)F)C1=O [Compound 406, [(5Z)-5-({1-[4-Chloro-2-(trifluoromethyl)benzyl]-3-fluoro-1H-indazol-5-yl}methylidene)-2,4-dioxo-1,3-thiazolidin-3-yl]acetic acid] | 13 nM |
| O=C1S/C(=C\c2ccc3c(cnn3Cc3ccc(Cl)cc3C(F)(F)F)c2)C(=O)N1CC1(F)CCNCC1 [Compound 303, (5Z)-5-({1-[4-Chloro-2-(trifluoromethyl)benzyl]-1H-indazol-5-yl}methylidene)-3-[(4-fluoropiperidin-4-yl)methyl]-1,3-thiazolidine-2,4-dione] | 26 nM |
| O=C(CN1C(=O)S/C(=C\c2ccc3c(cnn3Cc3ccc(Cl)cc3C(F)(F)F)c2)C1=O)N1CCN[C@@H](CO)C1 [Compound 57, (5Z)-5-({1-[4-Chloro-2-(trifluoromethyl)benzyl]-1H-indazol-5-yl}methylidene)-3-{2-[(3R)-3-(hydroxymethyl)piperazin-1-yl]-2-oxoethyl}-1,3-thiazolidine-2,4-dione] | 59 nM |
| O=C1S/C(=C\c2ccc3c(cnn3Cc3ccc(Cl)cc3C(F)(F)F)c2)C(=O)N1[C@@H]1CNC[C@@H]1F (relative stereo) [Compound 322, (5Z)-5-({1-[4-Chloro-2-(trifluoromethyl)benzyl]-1H-indazol-5-yl}methylidene)-3-[cis-4-fluoropyrrolidin-3-yl]-1,3-thiazolidine-2,4-dione] | 60 nM |
| COCCN1CCC(N2C(=O)S/C(=C\c3ccc4c(cnn4Cc4ccc(Cl)cc4C(F)(F)F)c3)C2=O)CC1 [Compound 147, (5Z)-5-({1-[4-Chloro-2-(trifluoromethyl)benzyl]-1H-indazol-5-yl}methylidene)-3-[1-(2-methoxyethyl)piperidin-4-yl]-1,3-thiazolidine-2,4-dione] | 36 nM |
| COc1ccc(Cn2ncc3cc(/C=C4\SC(=O)N(CCN5CCC(O)CC5)C4=O)ccc32)c(C(F)(F)F)c1 [Compound 15, (5Z)-3-[2-(4-Hydroxypiperidin-1-yl)ethyl]-5-({1-[4-methoxy-2-(trifluoromethyl)benzyl]-1H-indazol-5-yl}methylidene)-1,3-thiazolidine-2,4-dione] | 62 nM |
| CCN1CCC(N2C(=O)S/C(=C\c3ccc4c(cnn4Cc4ccc(OC)cc4C(F)(F)F)c3)C2=O)CC1 [Compound 28, (5Z)-3-(1-Ethylpiperidin-4-yl)-5-({1-[4-methoxy-2-(trifluoromethyl)benzyl]-1H-indazol-5-yl}methylidene)-1,3-thiazolidine-2,4-dione] | 14 nM |
| NC(=O)CN1CC[C@@H](CN2C(=O)S/C(=C\c3ccc4c(cnn4Cc4ccc(Cl)cc4C(F)(F)F)c3)C2=O)C1 [Compound 299, 2-[(3R)-3-{[(5Z)-5-({1-[4-Chloro-2-(trifluoromethyl)benzyl]-1H-indazol-5-yl}methylidene)-2,4-dioxo-1,3-thiazolidin-3-yl]methyl}pyrrolidin-1-yl]acetamide] | 37 nM |
| COCCN1C(=O)S/C(=C\c2ccc3c(ccn3Cc3ccc(F)cc3C(F)(F)F)c2)C1=O [Compound 251, (5Z)-5-[(1-{[4-Fluoro-2-(trifluoromethyl)phenyl]methyl}-1H-indol-5-yl)methylidene]-3-[2-(methyloxy)ethyl]-1,3-thiazolidine-2,4-dione] | 350 nM |
| O=C1S/C(=C\c2ccc3c(cnn3Cc3ccc(Cl)cc3C(F)(F)F)c2)C(=O)N1C[C@@H]1CCCN2CCCC[C@H]12 [Compound 206, (5Z)-5-({1-[4-Chloro-2-(trifluoromethyl)benzyl]-1H-indazol-5-yl}methylidene)-3-[(1S,9aR)-octahydro-2H-quinolizin-1-ylmethyl]-1,3-thiazolidine-2,4-dione] | 97 nM |
| O=C1S/C(=C\c2ccc3c(c2)nnn3Cc2ccc(Cl)cc2C(F)(F)F)C(=O)N1CCN1CCCC1 [Compound 258, (5Z)-5-({1-[4-Chloro-2-(trifluoromethyl)benzyl]-1H-benzotriazol-5-yl}methylidene)-3-(2-pyrrolidin-1-ylmethyl)-1,3-thiazolidine-2,4-dione] | 24 nM |

Further lines, results first:

| EC50 | Structure (SMILES) |
| --- | --- |
| 71 nM | CN(C)C1(CN2C(=O)S/C(=C\c3ccc4c(cnn4Cc4ccc(Cl)cc4C(F)(F)F)c3)C2=O)CCC1 [Compound 315, (5Z)-5-({1-[4-Chloro-2-(trifluoromethyl)benzyl]-1H-indazol-5-yl}methylidene)-3-{[1-(dimethylamino)cyclobutyl]methyl}-1,3-thiazolidine-2,4-dione] |
| 160 nM | CN1C[C@H](F)C[C@H]1CN1C(=O)S/C(=C\c2ccc3c(cnn3Cc3ccc(Cl)cc3C(F)(F)F)c2)C1=O [Compound 193, (5Z)-5-({1-[4-Chloro-2-(trifluoromethyl)benzyl]-1H-indazol-5-yl}methylidene)-3-{[(2S,4R)-4-fluoro-1-methylpyrrolidin-2-yl]methyl}-1,3-thiazolidine-2,4-dione] |
| 215 nM | O=C1S/C(=C\c2ccc3c(cnn3Cc3ccc(Cl)cc3C(F)(F)F)c2)C(=O)N1CCNS(=O)(=O)c1ccccc1 [Compound 391, N-{2-[(5Z)-5-({1-[4-Chloro-2-(trifluoromethyl)benzyl]-1H-indazol-5-yl}methylidene)-2,4-dioxo-1,3-thiazolidin-3-yl]ethyl}benzenesulfonamide] |
| 96 nM | O=C1S/C(=C\c2ccc3c(cnn3Cc3ccc(Cl)cc3C(F)(F)F)c2)C(=O)N1C[C@@H]1C[C@@H](O)CN1 [Compound 182, (5Z)-5-({1-[4-Chloro-2-(trifluoromethyl)benzyl]-1H-indazol-5-yl}methylidene)-3-{[(2S,4R)-4-hydroxypyrrolidin-2-yl]methyl}-1,3-thiazolidine-2,4-dione] |
| 25 nM | CS(=O)(=O)n1ccnc1CN1C(=O)S/C(=C\c2ccc3c(cnn3Cc3ccc(Cl)cc3C(F)(F)F)c2)C1=O [Compound 410, (5Z)-5-({1-[4-Chloro-2-(trifluoromethyl)benzyl]-1H-indazol-5-yl}methylidene)-3-{[1-(methylsulfonyl)-1H-imidazol-2-yl]methyl}-1,3-thiazolidine-2,4-dione] |
| 46 nM | N[C@H]1C[C@H](CN2C(=O)S/C(=C\c3ccc4c(cnn4Cc4ccc(Cl)cc4C(F)(F)F)c3)C2=O)C1 [Compound 100, (5Z)-3-[(trans-3-Aminocyclobutyl)methyl]-5-({1-[4-chloro-2-(trifluoromethyl)benzyl]-1H-indazol-5-yl}methylidene)-1,3-thiazolidine-2,4-dione] |
| 12 nM | O=C1S/C(=C\c2ccc3c(cnn3Cc3ccc(Cl)cc3C(F)(F)F)c2)C(=O)N1CC(=O)N1CCNS1(=O)=O [Compound 415] |
| 57 nM | O=C1S/C(=C\c2ccc3c(cnn3Cc3ccc(Cl)cc3C(F)(F)F)c2)C(=O)N1C[C@@H]1CCCNC1 [Compound 95, (5Z)-5-({1-[4-Chloro-2-(trifluoromethyl)benzyl]-1H-indazol-5-yl}methylidene)-3-[(3R)-piperidin-3-ylmethyl]-1,3-thiazolidine-2,4-dione] |
| 76 nM | NC(=O)CN1CCC[C@H]1CN1C(=O)S/C(=C\c2ccc3c(cnn3Cc3ccc(Cl)cc3C(F)(F)F)c2)C1=O [Compound 297, 2-[(2S)-2-{[(5Z)-5-({1-[4-Chloro-2-(trifluoromethyl)benzyl]-1H-indazol-5-yl}methylidene)-2,4-dioxo-1,3-thiazolidin-3-yl]methyl}pyrrolidin-1-yl]acetamide] |
| 58 nM | O=C(O)[C@@H](CO)N1C(=O)S/C(=C\c2ccc3c(cnn3Cc3ccc(Cl)cc3C(F)(F)F)c2)C1=O [Compound 222, (2R)-2-[(5Z)-5-({1-[4-Chloro-2-(trifluoromethyl)benzyl]-1H-indazol-5-yl}methylidene)-2,4-dioxo-1,3-thiazolidin-3-yl]-3-hydroxypropanoic acid] |

— patent publication US8796256B2 (Janssen Pharmaceutica NV, priority 2010, dated 2014)
